Data: patent US20180044418A1, “COMBINATION OF A PD-1 ANTAGONIST AND VORINOSTAT FOR TREATING CANCER” (Merck Sharp & Dohme Corp., priority 2016, published 2018)

Key:
CT-26 cells = assay: Anti-tumor response in CT-26 tumor-bearing mice; format: in vivo, BALB/cAnN mice
Text: (§1) This experiment compared the anti-tumor response of tumor-bearing mice to treatment with one of three regimens: monotherapy with a murine anti-mouse PD-1 monoclonal antibody (anti-PD-1), monotherapy with Vorinostat and combination therapy with these two agents administered concurrently.
Tumor-bearing mice for this study were initiated by implanting 3×10^5 log-phase and sub-confluent CT-26 cells on the right lower dorsal flank of 7-8 week old female BALB/cAnN mice with an average body weight of 18 grams. When the mean tumor volume in these mice reached ˜100 cubic mm (60mm^3-150 mm^3) (FIG. 1(A)), the tumor-bearing mice were randomized to 4 treatment groups of 12 mice per group: (1) Isotype control+Vehicle control group;(2) anti-PD-1 +Vehicle control; (3) Vorinostat +Isotype control and; (4) anti-PD-1+Vorinostat. A monoclonal antibody of murine isotype IgG1 against murine PD-1 and isotype control were obtained from internal sources. The isotype control was a mouse monoclonal antibody specific for adenoviral hexon 25 and was of the isotype IgG1. […] Anti-PD-1 was administered to treatment groups 2 and 4 at 10 mg/kg i.p. every 5 days for each of 5 cycles. Vorinostat was administered to treatment groups 3 and 4 at 150 mg/kg every day for 27 days.

RENCA cells = assay: Anti-tumor response in RENCA tumor-bearing mice
Text: as §1
Tumor-bearing mice for this study were initiated by implanting 1×10^6 log-phase and sub-confluent RENCA cells on the right lower dorsal flank of 7-8 week old female BALB/cmice with an average body weight of 19 grams. When the mean tumor volume in these mice reached ˜100 cubic mm (65mm^3-140 mm^3) (FIG. 9(A)), the tumor-bearing mice were randomized to 4 treatment groups of 12 mice per group: (1) Isotype control +Vehicle control group;(2) Anti-PD-1 +Vehicle control; (3) Vorinostat+Isotype control and; (4) Anti-PD-1 +Vorinostat. A monoclonal antibody of murine isotype IgG1 against murine PD-1 and isotype control were obtained from internal sources. The isotype control was a mouse monoclonal antibody specific for adenoviral hexon 25 and was of the isotype IgG1. The formulations for each reagent was as follows: Isotype contro1:75 mM NaCl, 10 mM sodium phosphate, 3% sucrose, pH7.3; anti-PD-1: 20 mM sodium acetate, 7% sucrose, pH5.5; and Vorinostat vehicle: 0.5% HPC (hydroxypropylcellulose) with 0.002% SDS (sodium dodecyl sulfate) in sterile water. Anti-PD-1 was administered to treatment groups 2 and 4 at 5 mg/kg i.p. every 5 days for each of 5 cycles. Vorinostat was administered to treatment groups 3 and 4 at 150 mg/kg every day for 29 days.

With `O=C(CCCCCCC(=O)Nc1ccccc1)NO` [Vorinostat, suberoylanilide hydroxamic acid] as the compound, how does the “effect of Vorinostat on anti-PD-1 anti-tumor activity in the combination treatment arm” value (CT-26 cells) read?
Its value is “did not demonstrate antagonistic effects”.

What about the “complete regressions (CR)” value (CT-26 cells; 12 per group, measured through Day 29, anti-PD-1 10 mg/kg i.p. every 5 days x5, Vorinostat 150 mg/kg every day for 27 days) of the same compound?
Its value is “No CRs”.

And the survival (CT-26 cells; at Day 30, FIG. 8(B))?
Its survival is 10%.

What about the “effect of Vorinostat on anti-PD-1 anti-tumor activity in the combination treatment arm” value (RENCA cells) of the same compound?
The value was “did not demonstrate antagonistic effects”.

And the survival (RENCA cells; at Day 30, FIG. 9(B))?
Its survival is 23%.

What about the “complete regressions (CRs)” value (RENCA cells; monotherapy arms, measured through Day 29) of the same compound?
The value was “No CRs”.
